Test results published in patent US9856220B2 (AbbVie Deutschland GmbH & Co. KG, priority 2011, dated 2018).
pIC50: −log10 of the molar value.

How the values were obtained:
[1] = target: PDE10A (Homo sapiens (Human), UniProt Q9Y233); test: Measurement of PDE activity (recombinant PDE, cAMP HTRF); format: biochemical; settings: 20 nM cyclic nucleotide substrate, 60 minutes at 29 C
Method: a) Measurement of PDE Activity
The recombinant PDE proteins are used in in vitro enzymatic reaction for measurement of PDE activity. These recombinant proteins, including PDE10A (human, rat and mouse PDE10) and isoforms of PDEs 1, 3, 4, and 5, were purchased from commercial vendor BPS Bioscience. The enzymatic activity of PDEs was determined by cAMP measurement kit from CisBio (IBA) using HTRF technology.
The PDE enzymatic reaction was carried out in assay buffer (20 mM Tris-HCl pH7.5, 10 mM MgCl2, 0.1% bovine serum albumin) containing enzyme and substrate. […] The substrate cyclic nucleotide (cAMP or cGMP) concentration used in the assay was 20 nM for PDE10, and 100 nM for other PDEs. The inhibitory effect of compound was determined by incubating various concentration of inhibitor in the enzymatic assay. […] Next, the compound at varying concentration was mixed with PDE enzyme. The reaction was initiated by addition of cyclic nucleotide substrate, and incubated for 60 minutes at 29 C. The reaction was stopped by addition of lysis buffer from assay kit. The cAMP-d2 and anti-cAMP cryptate in the lysis buffer detected the level of cAMP left from the PDE hydrolysis reaction. […] Thus, IC50 value of inhibitor can be obtained by plotting inhibitor concentration against PDE activity at that concentration.

[2] = Determination of the microsomal half-life / microsomal clearance, rat liver microsomes; format: in vitro ADME; settings: 0.5 μM test substance, 0.25 mg of microsomal protein/ml, pH 7.4, 37° C.
Method: (§1) b) Determination of the Microsomal Half-Life:
(§2) The metabolic stability of the compounds of the invention was determined in the following assay.
(§3) The test substances were incubated in a concentration of 0.5 μM as follows:
(§4) 0.5 μM test substance are preincubated together with liver microsomes from different species (from rat, human or other species) (0.25 mg of microsomal protein/ml) in 0.05 M potassium phosphate buffer of pH 7.4 in microtiter plates at 37° C. for 5 min. The reaction is started by adding NADPH (1 mg/mL). After 0, 5, 10, 15, 20 and 30 min, 50 μl aliquots are removed, and the reaction is immediately stopped and cooled with the same volume of acetonitrile. The samples are frozen until analyzed. The remaining concentration of undegraded test substance is determined by MSMS. The half-life (T½) is determined from the gradient of the signal of test substance/unit time plot, it being possible to calculate the half-life of the test substance, assuming first order kinetics, from the decrease in the concentration of the compound with time. The microsomal clearance (mCl) is calculated from mCl=ln 2/T½/(content of microsomal protein in mg/ml)×1000 [ml/min/mg]

[3] = Determination of the microsomal half-life / microsomal clearance, human liver microsomes; format: in vitro ADME; settings: 0.5 μM test substance, 0.25 mg of microsomal protein/ml, pH 7.4, 37° C.
Method: as §1, §2, §3, §4

Chain of PDE10A (Q9Y233 whole entry, species assumed): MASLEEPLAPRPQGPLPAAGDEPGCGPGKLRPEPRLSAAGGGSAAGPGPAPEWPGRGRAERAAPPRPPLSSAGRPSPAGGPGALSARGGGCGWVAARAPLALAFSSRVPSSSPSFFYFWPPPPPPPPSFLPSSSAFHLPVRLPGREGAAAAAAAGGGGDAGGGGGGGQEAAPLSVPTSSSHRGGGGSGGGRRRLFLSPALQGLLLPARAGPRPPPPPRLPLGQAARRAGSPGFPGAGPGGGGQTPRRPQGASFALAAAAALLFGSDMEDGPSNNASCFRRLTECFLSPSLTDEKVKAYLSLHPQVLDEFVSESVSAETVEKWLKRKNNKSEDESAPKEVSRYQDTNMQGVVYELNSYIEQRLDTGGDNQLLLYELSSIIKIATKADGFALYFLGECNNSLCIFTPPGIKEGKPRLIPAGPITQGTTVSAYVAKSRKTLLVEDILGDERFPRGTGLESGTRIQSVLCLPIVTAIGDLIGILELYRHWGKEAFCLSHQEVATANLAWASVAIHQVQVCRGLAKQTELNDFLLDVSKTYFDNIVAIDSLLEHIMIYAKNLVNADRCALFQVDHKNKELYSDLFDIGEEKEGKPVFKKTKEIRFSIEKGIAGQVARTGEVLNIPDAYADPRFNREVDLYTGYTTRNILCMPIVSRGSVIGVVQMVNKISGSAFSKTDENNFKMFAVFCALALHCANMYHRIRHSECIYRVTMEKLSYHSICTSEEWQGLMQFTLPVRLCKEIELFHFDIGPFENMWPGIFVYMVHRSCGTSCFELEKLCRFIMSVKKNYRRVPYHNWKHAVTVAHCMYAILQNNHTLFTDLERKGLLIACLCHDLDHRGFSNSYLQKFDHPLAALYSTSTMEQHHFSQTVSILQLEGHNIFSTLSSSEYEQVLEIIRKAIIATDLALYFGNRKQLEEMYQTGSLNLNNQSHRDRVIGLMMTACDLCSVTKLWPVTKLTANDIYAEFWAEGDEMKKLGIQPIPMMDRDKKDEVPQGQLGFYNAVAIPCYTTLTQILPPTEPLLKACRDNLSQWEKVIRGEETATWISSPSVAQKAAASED

Row | SMILES | pIC50 [1] | Rat mCl [2] | Human mCl [3]
1 | CCC(CC)n1cc(C(=O)NC2CCc3ncccc32)c2cc(OC)c(OC)cc2c1=O (single isomer, unassigned; (+)) [Example 199, (+)-2-(1-Ethyl-propyl)-6,7-dimethoxy-1-oxo-1,2-dihydro-isoquinoline-4-carboxylic acid (6,7-dihydro-5H-[1]pyrindin-5-yl)-amide] | 6.30 to 6.70 | ++ (<100 μl min^−1 mg^−1) | ++ (<100 μl min^−1 mg^−1)
2 | CCn1cc(C(=O)NC2CCc3sccc32)c2cc(OC)c(OC)cc2c1=O (single isomer, unassigned; (+)) [Example 204, (+)-2-Ethyl-6,7-dimethoxy-1-oxo-1,2-dihydro-isoquinoline-4-carboxylic acid (5,6-dihydro-4H-cyclopenta[b]thiophen-4-yl)-amide] |  | ++ (<100 μl min^−1 mg^−1) | + (100-220 μl min^−1 mg^−1)
3 | COc1cc2c(C(=O)NC3CCc4ccccc43)cn(C3CC3)c(=O)c2cc1OC (centres unmarked) [Example 196, 2-Cyclopropyl-6,7-dimethoxy-1-oxo-1,2-dihydro-isoquinoline-4-carboxylic acid indan-1-ylamide] |  | ++ (<100 μl min^−1 mg^−1) | ++ (<100 μl min^−1 mg^−1)
4 | CCC(CC)n1cc(C(=O)NCc2cscn2)c2cc(OC)c(OC)cc2c1=O [Example 203, 2-(1-Ethyl-propyl)-6,7-dimethoxy-1-oxo-1,2-dihydro-isoquinoline-4-carboxylic acid (thiazol-4-ylmethyl)-amide] |  | ++ (<100 μl min^−1 mg^−1) | ++ (<100 μl min^−1 mg^−1)
5 | CCn1cc(C(=O)NCc2ccc(C)cc2F)c2cc(OC)c(OC)cc2c1=O [Example 273, 2-Ethyl-N-[(2-fluoro-4-methyl-phenyl)methyl]-6,7-dimethoxy-1-oxo-isoquinoline-4-carboxamide] | 6.30 to 6.70 |  | 
6 | CCn1cc(C(=O)NCc2ccc(C)cc2OC(C)(C)C)c2cc(OC)c(OC)cc2c1=O [Example 276, N-[(2-tert-Butoxy-4-methyl-phenyl)methyl]-2-ethyl-6,7-dimethoxy-1-oxo-isoquinoline-4-carboxamide] | 6.30 to 6.70 |  | 
7 | CCn1cc(C(=O)NCc2ccc(C)cc2OC(C)(C)CC)c2cc(OC)c(OC)cc2c1=O [Example 277, N-[[2-(1,1-Dimethylpropoxy)-4-methyl-phenyl]methyl]-2-ethyl-6,7-dimethoxy-1-oxo-isoquinoline-4-carboxamide] | 6.30 to 6.70 |  | 
8 | CCn1cc(C(=O)NCc2ccc(C)c(F)c2F)c2cc(OC)c(OC)cc2c1=O [Example 278, N-[(2,3-Difluoro-4-methyl-phenyl)methyl]-2-ethyl-6,7-dimethoxy-1-oxo-isoquinoline-4-carboxamide] | 6.30 to 6.70 |  | 
9 | CCn1cc(C(=O)NCc2ccc(C)cc2OCC(F)(F)F)c2cc(OC)c(OC)cc2c1=O [Example 288, 2-Ethyl-6,7-dimethoxy-N-[[4-methyl-2-(2,2,2-trifluoroethoxy)phenyl]methyl]-1-oxo-isoquinoline-4-carboxamide] | 6.30 to 6.70 |  | 
10 | CCn1cc(C(=O)NCc2ccc(C)cc2OCC2CC2)c2cc(OC)c(OC)cc2c1=O [Example 290, N-[[2-(Cyclopropylmethoxy)-4-methyl-phenyl]methyl]-2-ethyl-6,7-dimethoxy-1-oxo-isoquinoline-4-carboxamide] | 6.30 to 6.70 |  | 
11 | CCn1cc(C(=O)NCc2ccc(C)cc2OCCOC)c2cc(OC)c(OC)cc2c1=O [Example 293, 2-Ethyl-6,7-dimethoxy-N-[[2-(2-methoxyethoxy)-4-methyl-phenyl]methyl]-1-oxo-isoquinoline-4-carboxamide] | 6.30 to 6.70 |  | 
12 | CCC(C)Oc1cc(C)ccc1CNC(=O)c1cn(CC)c(=O)c2cc(OC)c(OC)cc12 (centres unmarked) [Example 298, N-(2-sec-Butoxy-4-methylbenzyl)-2-ethyl-6,7-dimethoxy-1-oxo-1,2-dihydroisoquinoline-4-carboxamide] | 6.30 to 6.70 |  | 
13 | CCn1cc(C(=O)NCc2ccc(C)cc2OC(C)C)c2cc(OC)c(OC)cc2c1=O [Example 302, 2-Ethyl-N-(2-isopropoxy-4-methylbenzyl)-6,7-dimethoxy-1-oxo-1,2-dihydroisoquinoline-4-carboxamide] | 6.30 to 6.70 |  | 
14 | CCn1cc(C(=O)NCc2ccc(C)cc2OC2CCOC2)c2cc(OC)c(OC)cc2c1=O (centres unmarked) [Example 303, 2-Ethyl-6,7-dimethoxy-N-(4-methyl-2-(tetrahydrofuran-3-yloxy)benzyl)-1-oxo-1,2-dihydroisoquinoline-4-carboxamide] | 6.30 to 6.70 |  | 
15 | CCn1cc(C(=O)NCc2ccc(C)cc2OCC2CCCO2)c2cc(OC)c(OC)cc2c1=O (centres unmarked) [Example 305, 2-Ethyl-6,7-dimethoxy-N-(4-methyl-2-((tetrahydrofuran-2-yl)methoxy)benzyl)-1-oxo-1,2-dihydroisoquinoline-4-carboxamide] | 6.30 to 6.70 |  | 
16 | CCn1cc(C(=O)NCc2ccc(C)cc2OC)c2cc(OC)c(OC)cc2c1=O [Example 308, 2-Ethyl-6,7-dimethoxy-N-(2-methoxy-4-methylbenzyl)-1-oxo-1,2-dihydroisoquinoline-4-carboxamide] | 6.30 to 6.70 |  | 
17 | CCn1cc(C(=O)NCc2cscn2)c2cc(OC)c(OC)cc2c1=O [Example 309, 2-Ethyl-6,7-dimethoxy-1-oxo-N-(thiazol-4-ylmethyl)isoquinoline-4-carboxamide] | 6.30 to 6.70 |  | ++ (<100 μl min^−1 mg^−1)
18 | CCn1cc(C(=O)NCc2ccc(C(F)(F)F)cc2)c2cc(OC)c(OC)cc2c1=O [Example 310, 2-Ethyl-6,7-dimethoxy-1-oxo-N-[[4-(trifluoromethyl)phenyl]-methyl]isoquinoline-4-carboxamide] |  | ++ (<100 μl min^−1 mg^−1) | ++ (<100 μl min^−1 mg^−1)
19 | CCn1cc(C(=O)N[C@@H](C)c2ccc(C)cc2)c2cc(OC)c(OC)cc2c1=O [Example 311, 2-Ethyl-6,7-dimethoxy-1-oxo-N-[(1S)-1-(p-tolyl)ethyl]isoquinoline-4-carboxamide] | 6.30 to 6.70 |  | ++ (<100 μl min^−1 mg^−1)
20 | CCn1cc(C(=O)NCc2ccc(C(C)C)cc2)c2cc(OC)c(OC)cc2c1=O [Example 312, 2-Ethyl-N-[(4-isopropylphenyl)methyl]-6,7-dimethoxy-1-oxo-isoquinoline-4-carboxamide] |  | ++ (<100 μl min^−1 mg^−1) | + (100-220 μl min^−1 mg^−1)
21 | CCn1cc(C(=O)N[C@H](C)c2ccc(C)cc2)c2cc(OC)c(OC)cc2c1=O [Example 314, 2-Ethyl-6,7-dimethoxy-1-oxo-N-[(1R)-1-(p-tolyl)ethyl]isoquinoline-4-carboxamide] |  | ++ (<100 μl min^−1 mg^−1) | ++ (<100 μl min^−1 mg^−1)
22 | CCn1cc(C(=O)NCc2ccc(C(F)F)cc2)c2cc(OC)c(OC)cc2c1=O [Example 315, N-[[4-(Difluoromethyl)phenyl]methyl]-2-ethyl-6,7-dimethoxy-1-oxo-isoquinoline-4-carboxamide] |  | ++ (<100 μl min^−1 mg^−1) | ++ (<100 μl min^−1 mg^−1)
23 | CCCCNC(=O)c1cn(CCc2ccc3ccccc3n2)c(=O)c2cc(OC)c(OC)cc12 [Example 322, N-Butyl-6,7-dimethoxy-1-oxo-2-[2-(2-quinolyl)ethyl]isoquinoline-4-carboxamide; 2,2,2-trifluoroacetic acid] | > 7.00 |  | 
24 | COc1cc2c(C(=O)NC3CCc4ccccc43)cn(CCc3ccc4ccccc4n3)c(=O)c2cc1OC (centres unmarked) [Example 323, N-Indan-1-yl-6,7-dimethoxy-1-oxo-2-[2-(2-quinolyl)ethyl]isoquinoline-4-carboxamide; 2,2,2-trifluoroacetic acid] | 6.30 to 6.70 |  | 
